According to paper PMC11376277, “Crystallographic fragment screen of the c-di-AMP-synthesizing enzyme CdaA from Bacillus subtilis” (Acta Crystallographica Section F: Structural Biology …, 2024):

Biological target: T1, EfCdaA (Enterococcus faecium, UniProt Q3Y0C9)
T1 construct: gene dacA; N-terminally truncated soluble DAC domain; codon-optimized synthetic DNA, pET-28a, E. coli Rosetta (DE3); tag cut with PreScission
T1 sequence (Q3Y0C9 121-269): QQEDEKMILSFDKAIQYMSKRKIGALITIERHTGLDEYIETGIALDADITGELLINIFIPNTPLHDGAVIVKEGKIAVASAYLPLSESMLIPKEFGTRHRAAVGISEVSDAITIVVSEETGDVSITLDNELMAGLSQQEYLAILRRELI
Experiment: ITC, […] binding model
Conditions: 25 C, pH 7.5, 20 mM Tris-HCl, 300 mM NaCl, 5% DMSO, 10 mM MgCl2

Compound | Kd
Nc1ncnc2c1ncn2[C@@H]1O[C@H](COP(=O)(O)OP(=O)(O)OP(=O)(O)O)[C@@H](O)[C@H]1O [ATP] | 237 µM
CC(C)OC(=O)OCOP(=O)(CO[C@H](C)Cn1cnc2c(N)ncnc21)OCOC(=O)OC(C)C [tenofovir disoproxil] | 7.91 µM
